According to patent US20130345419A1, “AZOLE DERIVATIVE” (TAISHO PHARMACEUTICAL CO., LTD., priority 2011, published 2013):
≈ marks a conversion by molar mass, not a printed value.

Key:
human recombinant FKBP12 = target: T1, human recombinant FKBP12 (Homo sapiens, UniProt P62942); assay: Test 1: immunophilin FKBP12 rotamase (peptidylprolyl isomerase) inhibiting activity; assay type: biochemical; details: 12 nM human recombinant FKBP12, substrate succinyl-Ala-Phe-Pro-Phe-paranitroanilide 48 μM, 4° C.; read-out: PKBP12 rotamase inhibiting activity IC50
T1 construct: purchased Sigma F-5398
Experimental: (Test 1) Test for Measuring Immunophilin FKBP12 Rotamase Activity
The rotamase (peptidylprolyl isomerase) inhibiting activity of each test compound was measured by a known method (Harding et al., Nature 341, 758-760, 1989; Holts et al., J. Am. Chem. Soc. 115, 9925-9938, 1993.) To be more specific, a plastic cuvette was charged with 35 mM HEPES (pH 7.8), 12 nM human recombinant FKBP12 (Sigma, F-5398), 0.4 mg/mL α-chymotrypsin, and a test compound dissolved in DMSO at varying concentrations (DMSO's final concentration was 0.1%.) Subsequently, 24 mM of the substrate peptide, succinyl-Ala-Phe-Pro-Phe-paranitroanilide, as dissolved in trifluoroethanol containing 500 mM of LiCl was added to give a final concentration of 48 μM, whereupon reaction started. The reaction was carried out at 4° C. and the change in absorbance at 390 nm accompanying the liberation of the paranitroaniline product was monitored. A calculated initial rate minus the corresponding value in the absence of the enzyme was used as an index of rotamase activity. The rotamase inhibiting activity of a test compound was expressed in relative values (%) with respect to the control value of rotamase activity in the absence of the compound, and the concentration of the compound at which it was capable of inhibiting rotamase activity by 50% was calculated as an IC50 value from its concentration response curve.

[1] = Test 2: dissolution test in 1,3-butylene glycol/water/ethanol base; assay type: physicochemical; details: base: 5 g 1,3-butylene glycol + 10 g water, ethanol to 100 mL, stirred at 25° C. for 7 days, HPLC
Experimental: (Test 2) Dissolution Test
To 5 g of 1,3-butylene glycol, 10 g of water was added and the mixture was stirred until homogeneity; thereafter, ethanol was added to make a total volume of 100 mL, whereby a base was prepared.

C57BL mice [2] = assay: Test 3: hair development stimulating effect in shaven mouse model (Compound 1); assay type: in vivo; details: 5% (w/v) solution in Test 2 base, 200 μL on shaven back once daily, day 15 of the administration and onward
Experimental: (Test 3) Test for Measuring Hair Development Stimulating Effect in Shaven Mouse Model
(§1) C57BL mice (female, ca. 7-wk old) were shaven on the back and the base prepared in Test 2 or a solution prepared by dissolving 5% (w/v) of Compound 1 in this base was administered by applying them to the shaven area in 200-μL portions once daily starting 3 days after the shaving (each group consisting of 10 heads.) Every 2 or 3 days after the start of the administration, the state of hair development in the shaven area was scored in accordance with the following criteria.
(§2) Criteria for scoring the hair development: 1=No hair development. 2=Hair development in less than 30% of the shaven area. 3=Hair development in at least 30% but less than 60% of the shaven area. 4=Hair development in at least 60% but less than 90% of the shaven area. 5=Hair development in at least 90% of the shaven area.

[3] = Test 4: dissolution test in ethanol/water base; assay type: physicochemical; details: organic solvent or mixture, thermodynamic from solid; base: 79 mL ethanol, water to 100 mL; stirred at 5° C. for 3 days; HPLC
Experimental: (Test 4) Dissolution Test
To 79 mL of ethanol, water was added to give a total volume of 100 mL, whereby a base was prepared. An excess amount of a test compound was put into a test tube, the prepared base was added, and the mixture was stirred at 5° C. for 3 days and passed through a membrane filter (0.45 μm); the resulting filtrate was diluted with acetonitrile and the concentration of the diluted solution was measured by HPLC to determine the solubility of the compound.

C57BL mice [4] = assay: Test 5: hair development stimulating effect in shaven mouse model (Compound 40); assay type: in vivo; details: 5% (w/v) solution in Test 4 base, 200 μL on shaven back once daily, day 15 of the administration and onward
Excerpt: as §2
(Test 5) Test for Measuring Hair Development Stimulating Effect in Shaven Mouse Model
as §1, with “Test 4” for “Test 2”, “Compound 40” for “Compound 1”, “the criteria described in Test 3.” for “the following criteria.”

[5] = test system: proliferating cell nuclear antigen (PCNA); assay: Test 6: anagen induction stimulating effect in shaven mouse model, skin PCNA by ELISA; assay type: in vivo; details: 5% (w/v) in 80% ethanol, 200 μL once daily for 2 days, skin sampled about 4 hours after second administration, C57BL mice
Experimental: (Test 6) Test for Measuring Anagen Induction Stimulating Effect in Shave Mouse Model
The anagen induction stimulating effect of a compound was measured by the following method with the quantity of skin PCNA being used as an index.
C57BL mice (female, ca. 7-wk old) were shaven on the back and a base (80% ethanol) or a solution prepared by dissolving 5% (w/v) of Compound 40, 52, 59, 61, 63, 64 or 66 in this base was administered by applying them to the shaven area in 200-μL portions once daily for 2 days starting 3 days after the shaving (each group consisting of 5 heads.) About 4 hours after the administration on the second day, the skin at the application site was sampled and homogenized in a buffer containing 50 mM Tris-HCl (pH 7.6), 150 mM NaCl, 1% NP-40, and a protease inhibitor. By a centrifugal separation procedure, a PCNA containing protein solution was prepared and the quantity of PCNA in the solution was measured with a PCNA-ELISA kit of Calbiochem, Inc.

T1 sequence (P62942 whole entry): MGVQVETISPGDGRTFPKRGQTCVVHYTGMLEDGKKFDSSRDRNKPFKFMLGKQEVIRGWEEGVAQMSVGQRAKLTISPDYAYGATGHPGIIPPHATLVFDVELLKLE

SMILES | IC50 (human recombinant FKBP12) [nM] | quantity of skin PCNA versus base administered group [5] | other results
CC1(C)CC(C)(C)CC(O)(C(F)(F)C(=O)N2CCC[C@H]2c2cc(COc3ccncn3)on2)C1 [Compound 63, (S)-2,2-Difluoro-2-(1-hydroxy-3,3,5,5-tetramethylcyclohexyl)-1-(2-(5-((pyrimidin-4-yloxy)methyl)isoxazol-3-yl)pyrrolidin-1-yl)ethanone] | 185 | increases in the quantity of skin PCNA | 
CC1(C)CC(C)(C)CC(O)(C(F)(F)C(=O)N2CCC[C@H]2c2cc(COc3cccc(F)c3)on2)C1 [Compound 64, (S)-2,2-Difluoro-1-(2-(5-((3-fluorophenoxy)methyl)isoxazol-3-yl)pyrrolidin-1-yl)-2-(1-hydroxy-3,3,5,5-tetramethylcyclohexyl)ethanone] | 182 | increases in the quantity of skin PCNA | 
COc1ccc(OCc2nc([C@@H]3CCCN3C(=O)C(F)(F)C3(O)CC(C)(C)CC(C)(C)C3)no2)cc1OC [comparative example, reference compound] |  |  | solubility [1]: 30.8 mg/mL

Further lines, with some results ahead:

IC50 (human recombinant FKBP12) [nM] | SMILES | quantity of skin PCNA versus base administered group [5] | other results
49 | COc1ccc(OCc2cc([C@@H]3CCCN3C(=O)C(F)(F)C3(O)CC(C)(C)CC(C)(C)C3)no2)cc1OC [Compound 1, (S)-1-(2-(5-((3,4-Dimethoxyphenoxy)methyl)isoxazol-3-yl)pyrrolidin-1-yl)-2,2-difluoro-2-(1-hydroxy-3,3,5,5-tetramethylcyclohexyl)ethanone] |  | solubility at 7 days ([1]; 1,3-butylene glycol/water/ethanol base, organic solvent or mixture, thermodynamic from solid): 57.5 mg/mL; hair development scores versus base administered group (C57BL mice [2]): higher than those in the base administered group
83 | CC1(C)CC(C)(C)CC(O)(C(F)(F)C(=O)N2CCC[C@H]2c2cc(COc3cccnc3)on2)C1 [Compound 40, (S)-2,2-Difluoro-2-(1-hydroxy-3,3,5,5-tetramethylcyclohexyl)-1-(2-(5-((pyridin-3-yloxy)methyl)isoxazol-3-yl)pyrrolidin-1-yl)ethanone] | higher values for the quantity of skin PCNA than the group administered with the base | solubility at 3 days [3]: 113 mg/mL (≈ 237 mM); hair development scores versus base administered group (C57BL mice [4]): higher than those in the base administered group
